Measured values published in patent US12083134B2, “Anacardic acid for neural repair” (Vanderbilt University, priority 2018, dated 2024).

Key:
IL-33 protein in OPCs = experiment: Western blot of IL-33 protein in OPCs (nuclear extracts) cultured with AA; format: cell-based, rat; conditions: for increase in the protein level of IL-33: OPCs
Protocol: FIG. 5 (top) provides the results of Western blot studies showing increased expression of IL-33 in the presence of AA in OPCs. […] Because IL-33 is mainly in the nucleus, the Wester blots were done with nuclear extracts and Lamin was used as the control.
In addition, at a dose of 2.5 μM of AA, there was a 1.8 fold increase in the protein level of IL-33, and at a dose of 7.5 μM of AA, there was a 3.1 fold increase in the protein level of IL-33 (FIG. 5).

[1] = tested on: experimental allergic encephalitis (EAE); experiment: EAE treatment, AA from earliest onset of paralytic signs; format: in vivo, mice
Text: The data is expressed as a percent area of myelin loss in three non-contiguous axial sections of the spinal cord; p<0.01 between treated and untreated groups when AA is given beginning day 0 or from the onset of symptoms.
Experimental allergic encephalitis (“EAE”) is an autoimmune inflammatory demyelinating disease of the CNS. For experimental purposes, the disease is induced in animals by immunizing the animals with myelin antigens in adjuvant. […] Ten to twelve days after immunization, paralysis develops in the animals. The degree of paralysis is scored as follows: 1=limp tail, 2=ataxia of gait and paralysis of one or more limbs, 3=paralysis of two or more limbs, 4=weakness of all limbs, 5=death.
To determine if treatment with AA would promote recovery after paralytic attack, the experiment shown in FIG. 13 was repeated but treatment with AA was not initiated until the earliest sign of disease appeared which occurred between days 11 and 12 following the initial immunization with MOG antigen. In the experiment, 10 mice were administered 0.25 mg/kg AA a day in DMSO and 10 mice were administered DMSO (vehicle). In the 10 mice that received 0.25 mg/kg AA a day, there was no difference in the mean maximal severity of the disease when compared to vehicle treated mice. The mean maximal severity was 2.8 in the vehicle treated group and was 2.6 in the AA treated group. However, there was a rapid reversal of paralysis in the AA treated group.
When AA was administered at the earliest onset of clinical signs of paralysis, the percent demyelination score in the AA treated group was 2.9. In comparison, in the vehicle treated group the percent demyelination score was 7.2 (P<0.01) (FIG. 15).

OPCs = experiment: Maturation of OPCs to mature oligodendrocytes, MBP staining after 14 days culture with AA; format: cell-based, rat; conditions: AA 1 μM
Protocol: FIG. 6 provides images showing the increased differentiation of OPCs to mature oligodendrocytes following culture with AA (Ana). OPCs were isolated from rat pups and were cultured with AA where 1 μM of AA was added to the culture every other day for 14 days. At the end of the experiment, the cells were stained and the amount of MBP was assessed using ImagJ software.
The expression of MBP, a marker for myelin maturation in OPCs, was investigated in the presence and absence of AA (1 μM) following culture with AA for 14 days.

SMILES: CCCCCCCCCCCCCCCc1cccc(O)c1C(=O)O [AA, anacardic acid]
- increase in IL-33 protein expression (image analysis of gels, FIG. 5) (IL-33 protein in OPCs; OPCs nuclear extracts, Lamin control, concentration not given): 1.6 fold
- increase in the protein level of IL-33 (IL-33 protein in OPCs; AA 2.5 μM): 1.8 fold
- increase in the protein level of IL-33 (IL-33 protein in OPCs; AA 7.5 μM): 3.1 fold
- mean maximal severity (clinical score) ([1]; AA 0.25 mg/kg a day from earliest sign of disease (days 11-12), vehicle 2.8): 2.6
- percent demyelination score ([1]; AA 0.25 mg/kg/day from earliest onset of clinical signs, vehicle 7.2, P<0.01): 2.9%
- recovery from paralysis ([1]; by day 24, AA 0.25 mg/kg a day from onset, one animal grade 2 weakness): all the other mice had fully recovered
- increase in the expression of MBP vs normal growth medium (OPCs): 2.1 fold
